Experimental data taken from patent US9751854B2 (Millennium Pharmaceuticals, Inc., priority 2014, dated 2017).

These compounds were tested against human VPS34 (Homo sapiens (Human), UniProt Q8NEB9) (assay: Human VPS34 enzyme assay (Adapta TR-FRET ADP detection)). Conditions: not given.
Chain of human VPS34 (Q8NEB9 whole entry): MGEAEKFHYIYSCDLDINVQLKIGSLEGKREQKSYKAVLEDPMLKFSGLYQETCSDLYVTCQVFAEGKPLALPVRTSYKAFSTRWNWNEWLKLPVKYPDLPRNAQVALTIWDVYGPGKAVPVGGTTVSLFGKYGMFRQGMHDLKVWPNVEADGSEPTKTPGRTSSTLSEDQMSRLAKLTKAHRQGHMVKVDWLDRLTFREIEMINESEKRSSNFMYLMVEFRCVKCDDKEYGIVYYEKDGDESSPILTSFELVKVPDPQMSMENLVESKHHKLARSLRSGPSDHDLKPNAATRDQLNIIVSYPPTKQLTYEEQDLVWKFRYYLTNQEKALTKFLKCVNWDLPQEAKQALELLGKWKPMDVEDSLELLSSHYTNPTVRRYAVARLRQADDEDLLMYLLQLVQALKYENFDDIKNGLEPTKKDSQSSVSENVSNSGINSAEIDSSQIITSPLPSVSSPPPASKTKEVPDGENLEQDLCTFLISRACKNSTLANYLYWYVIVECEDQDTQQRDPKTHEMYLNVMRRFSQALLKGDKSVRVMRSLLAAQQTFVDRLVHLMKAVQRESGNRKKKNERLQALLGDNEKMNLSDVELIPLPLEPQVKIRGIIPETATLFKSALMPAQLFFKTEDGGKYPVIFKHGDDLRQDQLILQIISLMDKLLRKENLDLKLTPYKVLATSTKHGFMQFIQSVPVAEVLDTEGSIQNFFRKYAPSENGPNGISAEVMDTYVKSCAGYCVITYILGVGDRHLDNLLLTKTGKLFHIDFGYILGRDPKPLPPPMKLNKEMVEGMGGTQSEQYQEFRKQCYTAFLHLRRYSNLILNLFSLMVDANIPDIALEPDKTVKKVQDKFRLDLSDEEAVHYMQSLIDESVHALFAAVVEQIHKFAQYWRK
Format: biochemical
Set-up: Percent Inhibition: dose or concentration left out as unconfirmed
For `CC(=O)Nc1cc(-c2cnc(C)c(NS(=O)(=O)c3nccn3C)c2)ccn1` [Compound I-92], the “Percent Inhibition” value was over 99%. With `CC(=O)Nc1cc(-c2cc(N(C)S(C)(=O)=O)c(C)[n+]([O-])c2)ccn1` [Compound I-129, N-(4-{6-methyl-5-[methyl(methylsulfonyl)amino]-1-oxidopyridin-3-yl}pyridin-2-yl)acetamide] the “Percent Inhibition” value was 100%.

Same assay, conditions: IC50 range class
With `CC(=O)Nc1cc(-c2cnc(N)c(S(=O)(=O)N3CCCC3)c2)ccn1` [Compound I-87, N-[6-amino-5-(pyrrolidin-1-ylsulfonyl)-3,4′-bipyridin-2′-yl]acetamide] the IC50 was under 10 nM. `CC(=O)Nc1cc(-c2cnc(C)c(N3CCCS3(=O)=O)c2)ccn1` [Compound I-88, N-[5-(1,1-dioxidoisothiazolidin-2-yl)-6-methyl-3,4′-bipyridin-2′-yl]acetamide] showed an IC50 of 10 to 50 nM. `CNS(=O)(=O)c1cc(-c2ccnc(NC(C)=O)c2)cnc1N` [Compound I-89, N-[6-amino-5-(methylsulfamoyl)-3,4′-bipyridin-2′-yl]acetamide] showed an IC50 of 10 to 50 nM. In the case of `CC(=O)Nc1cc(-c2cnc(C)c(NS(=O)(=O)c3ccc(C(F)(F)F)cc3)c2)ccn1` [Compound I-90, N-[6-methyl-5-({[4-trifluoromethyl)phenyl]sulfonyl}amino-3,4′-bipyridin-2′-yl]acetamide], the IC50 is reported as under 10 nM. With `CC(=O)Nc1cc(-c2cnc(N)c(C(=O)Nc3cccnc3)c2)ccn1` [Compound I-91, 2′-acetamido-6-amino-N-(pyridin-3-yl)-3,4′-bipyridine-5-carboxamide] the IC50 was under 10 nM. `CC(=O)Nc1cc(-c2cnc3ccn(CC4CC4)c3c2)ccn1` [Compound I-93, N-{4-[1-(cyclopropylmethyl)-1H-pyrrolo[3,2-b]pyridin-6-yl]pyridin-2-yl}acetamide] gave an IC50 of 10 to 50 nM. In the case of `CC(=O)Nc1cc(-c2cnc(N)c(S(C)(=O)=O)c2)ccn1` [Compound I-95, N-[6-amino-5-(methylsulfonyl)-3,4′-bipyridin-2′-yl]acetamide], the IC50 is reported as 10 to 50 nM. In the case of `CC(=O)Nc1cc(-c2cnc(C)c(N(C)S(C)(=O)=O)c2)ccn1` [Compound I-96, N-{6-methyl-5-[methyl(methylsulfonyl)amino]-3,4′-bipyridin-2′-yl}acetamide], the IC50 is reported as 10 to 50 nM. Compound `CC(=O)Nc1cc(-c2cnc(N)c(S(=O)(=O)Nc3cccc(Cl)c3)c2)ccn1` [Compound I-97, N-[6-amino-5-[(3-chlorophenyl)sulamoyl]-3,4′-bipyridin-2′-yl]acetamide] has an IC50 of under 10 nM. `CC(=O)Nc1cc(-c2cnc(N)c(S(=O)(=O)Nc3ccc4ccccc4c3)c2)ccn1` [Compound I-98, N-[6-amino-5-(2-naphthylsulfamoyl)-3,4′-bipyridin-2′-yl]acetamide] showed an IC50 of 10 to 50 nM. With `CC(=O)Nc1cc(-c2cnc(N)c(S(=O)(=O)Cc3ccc(Cl)cc3)c2)ccn1` [Compound I-99, N-[6-amino-5-[(4-chlorobenzyl)sulfonyl]-3,4′-bipyridin-2′-yl]acetamide] the IC50 was 10 to 50 nM. Work on `CNc1ncc(-c2ccnc(NC(C)=O)c2)cc1S(=O)(=O)Nc1ccccc1` [Compound I-100, N-[6-(methylamino)-5-(phenylsulfamoyl)-3,4′-bipyridin-2′-yl]acetamide] yielded an IC50 of under 10 nM. `CC(=O)Nc1cc(-c2cnc(N)c(S(=O)(=O)NC3CCCCC3)c2)ccn1` [Compound I-101, N-[6-amino-5-(cyclohexylsulfamoyl)-3,4′-bipyridin-2′-yl]acetamide] gave an IC50 of under 10 nM. With `CC(=O)Nc1cc(-c2cncc(NS(=O)(=O)c3ccc(F)cc3F)c2C)ccn1` [Compound I-102, N-(5-{[(2,4-difluorophenyl)sulfonyl]amino]-4-methyl-3,4′-bipyridin-2′-yl)acetamide] the IC50 was 10 to 50 nM. Compound `CC(=O)Nc1cc(-c2cnc3[nH]cc(S(=O)(=O)N4CCN(C)CC4)c3c2)ccn1` [Compound I-103, N-(4-{3-[(4-methylpiperazin-1-yl)sulfonyl]-1H-pyrrolo[2,3-b]pyridin-5-yl]pyridin-2-yl)acetamide] has an IC50 of under 10 nM. With `COc1ncc(-c2ccnc(NC(C)=O)c2)cc1NS(=O)(=O)c1ccc(F)cc1F` [Compound I-104, N-(5-{[(2,4-difluorophenyl)sulfonyl]amino}-6-methoxy-3,4′-bipyridin-2′-yl)acetamide] the IC50 was under 10 nM. Compound `CC(=O)Nc1cc(-c2cnc3cn(S(=O)(=O)C4CC4)nc3c2)ccn1` [Compound I-105, N-{4-[2-(cyclopropylsulfonyl)-2H-pyrazolo[4,3-b]pyridin-6-yl]pyridin-2-yl}acetamide] has an IC50 of over 100 nM. `CC(=O)Nc1cc(-c2cncc(NC(=O)Cc3ccccc3)c2)ccn1` [Compound I-106, N-(2′-acetamido-3,4′-bipyridin-5-yl)-2-phenylacetamide] gave an IC50 of over 100 nM. For `COc1ncc(-c2ccnc(NC(C)=O)c2)cc1S(=O)(=O)Nc1ccc(F)cc1F` [Compound I-107, N-{5-[(2,4-difluorophenyl)sulfamoyl]-6-methoxy-3,4′-bipyridin-2′-yl]acetamide], the IC50 was under 10 nM. `CC(=O)Nc1cc(-c2cnc(N)c(S(=O)(=O)NCC3CC3)c2)ccn1` [Compound I-108, N-(6-amino-5-[(cyclopropylmethyl)sulfamoyl]-3,4′-bipyridin-2′-yl]acetamide] was tested, and the IC50 was 10 to 50 nM. In the case of `CC(=O)Nc1cc(-c2cnc(C)c(NS(=O)(=O)c3ccccc3Cl)c2)ccn1` [Compound I-109, N-(5-{[(2-chlorophenyl)sulfonyl]amino]-6-methyl-3,4′-bipyridin-2′-yl)acetamide], the IC50 is reported as under 10 nM. Work on `CC(=O)Nc1cc(-c2cnc(N)c(S(=O)(=O)N(C)CC3CC3)c2)ccn1` [Compound I-110, N-{6-amino-5-[(cyclopropylmethyl)(methyl)sulfamoyl]-3,4′-bipyridin-2′-yl}acetamide] yielded an IC50 of under 10 nM. Work on `CC(=O)Nc1cc(-c2cnc(C)c(NS(=O)(=O)c3cc(Cl)ccc3Cl)c2)ccn1` [Compound I-111, N-(5-{[(2,5-dichlorophenyl)sulfonyl]amino}-6-methyl-3,4′-bipyridin-2′-yl)acetamide] yielded an IC50 of under 10 nM. Work on `CC(=O)Nc1cc(-c2cnc(N(C)C)c(C(=O)Nc3ccc(F)cc3F)c2)ccn1` [Compound I-112, 2′-acetamido-N-(2,4-difluorophenyl)-6-(dimethylamino)-3,4′-bipyridine-5-carboxamide] yielded an IC50 of 50 to 100 nM. For `CC(=O)Nc1cc(-c2cnc(C)c(NS(=O)(=O)c3ccc(OC(F)(F)F)cc3Cl)c2)ccn1` [Compound I-113, N-[5-({[2-chloro-4-(trifluoromethoxy)phenyl]sulfonyl}amino)-6-methyl-3,4′-bipyridin-2′-yl]acetamide], the IC50 was under 10 nM. `CC(=O)Nc1cc(-c2cnc(C)c(NS(=O)(=O)C3CC3)c2)ccn1` [Compound I-114, N-{5-[(cyclopropylsulfonyl)amino]-6-methyl-3,4′-bipyridin-2′-yl]acetamide] was tested, and the IC50 was 10 to 50 nM. For `CC(=O)Nc1cc(-c2cnc(C)c(NC(=O)c3ccc(F)cc3F)c2)ccn1` [Compound I-115, N-(2′-acetamido-6-methyl-3,4′-bipyridin-5-yl)-2,4-difluorobenzamide], the IC50 was over 100 nM. With `CC(=O)Nc1cc(-c2cnc3cn[nH]c3c2)ccn1` [Compound I-116, N-[4-(1H-pyrazolo[4,3-b]pyridin-6-yl)pyridin-2-yl]acetamide] the IC50 was over 100 nM. Compound `O=C(Nc1cc(-c2cnc3[nH]ncc3c2)ccn1)C1CC1` [Compound I-117, N-[4-(1H-pyrazolo[3,4-b]pyridin-5-yl)pyridin-2-yl]cyclopropanecarboxamide] has an IC50 of 10 to 50 nM. For `CC(=O)Nc1cc(-c2cncc(S(=O)(=O)N3CCC(F)(F)C3)c2)ccn1` [Compound I-118, N-{5-[(3,3-difluoropyrrolidin-1-yl)sulfonyl]-3,4′-bipyridin-2′-yl}acetamide], the IC50 was 10 to 50 nM. `CC(=O)Nc1cc(-c2cnc(N)c(S(=O)(=O)N(C)C)c2)ccn1` [Compound I-119, N-[6-amino-5-(dimethylsulfamoyl)-3,4′-bipyridin-2′-yl]acetamide] gave an IC50 of under 10 nM. `CCN(CC)S(=O)(=O)c1cncc(-c2ccnc(NC(C)=O)c2)c1` [Compound I-120, N-[5-(diethylsulfamoyl)-3,4′-bipyridin-2′-yl]acetamide] showed an IC50 of under 10 nM. For `CC(=O)Nc1cc(-c2cnc(N)c(C(=O)Nc3cc(C)cnn3)c2)ccn1` [Compound I-121, 2′-acetamido-6-amino-N-(5-methylpyridazin-3-yl)-3,4′-bipyridine-5-carboxamide], the IC50 was 50 to 100 nM. Compound `CC(=O)Nc1cc(-c2cnc(N)c(S(=O)(=O)O)c2)ccn1` [Compound I-122, 2′-acetamido-6-amino-3,4′-bipyridine-5-sulfonic acid] has an IC50 of 50 to 100 nM. `COc1cccc(S(=O)(=O)Nc2cc(-c3ccnc(NC(C)=O)c3)cnc2C)c1` [Compound I-123, N-(5-{[(3-methoxyphenyl)sulfonyl]amino}-6-methyl-3,4′-bipyridin-2′-yl}acetamide] gave an IC50 of under 10 nM. `CCN(CC)S(=O)(=O)c1cc(-c2ccnc(NC(C)=O)c2)cnc1N` [Compound I-124, N-[6-amino-5-(diethylsulfamoyl)-3,4′-bipyridin-2′-yl]acetamide] was tested, and the IC50 was under 10 nM. `CC(=O)Nc1cc(-c2cnc(N)c(C(=O)N3Cc4ccccc4C3)c2)ccn1` [Compound I-125] gave an IC50 of under 10 nM. Compound `CC(=O)Nc1cc(-c2cnc(N)c(S(=O)(=O)CCc3ccccc3)c2)ccn1` [Compound I-126, N-[6-amino-5-[(2-phenylethyl)sulfonyl]-3,4′-bipyridin-2′-yl]acetamide] has an IC50 of 50 to 100 nM. In the case of `COc1ncc(-c2ccnc(NC(C)=O)c2)cc1C(=O)N(C)C` [Compound I-127, 2′-acetamido-6-methoxy-N,N-dimethyl-3,4′-bipyridine-5-carboxamide], the IC50 is reported as 50 to 100 nM. `CC(=O)Nc1cc(-c2cc(N(C)S(C)(=O)=O)c(C)[n+]([O-])c2)ccn1` [Compound I-129, N-(4-{6-methyl-5-[methyl(methylsulfonyl)amino]-1-oxidopyridin-3-yl}pyridin-2-yl)acetamide] gave an IC50 of over 100 nM. Compound `CC(=O)Nc1cc(-c2cnc(C)c(NS(=O)(=O)c3ccc(C)cc3F)c2)c(C)cn1` [Compound I-130, N-(5-{[(2-fluoro-4-methylphenyl)sulfonyl]amino}-5′,6-dimethyl-3,4′-bipyridin-2′-yl)acetamide] has an IC50 of 50 to 100 nM. With `CC(=O)Nc1cc(-c2cnc(C)c(NS(=O)(=O)c3ccc(C(C)(C)C)cc3)c2)ccn1` [Compound I-131, N-(5-{[(4-tert-butylphenyl)sulfonyl]amino}-6-methyl-3,4′-bipyridin-2′-yl)acetamide] the IC50 was under 10 nM. Compound `CNc1ncc(-c2ccnc(NC(C)=O)c2)cc1N1CCCS1(=O)=O` [Compound I-132, N-[5-(1,1-dioxidoisothiazolidin-2-yl)-6-(methylamino)-3,4′-bipyridin-2′-yl]acetamide] has an IC50 of under 10 nM.
